22 molecules from patent publication US20080200454A1, “CARBON-LINKED TETRAHYDRO-PYRAZOLO-PYRIDINE MODULATORS OF CATHEPSIN S” (priority 2007, published 2008) can be followed below.

pIC50: −log10 of the molar value.

Sequence of Recombinant human cathepsin S (CatS) (P25774 115-331): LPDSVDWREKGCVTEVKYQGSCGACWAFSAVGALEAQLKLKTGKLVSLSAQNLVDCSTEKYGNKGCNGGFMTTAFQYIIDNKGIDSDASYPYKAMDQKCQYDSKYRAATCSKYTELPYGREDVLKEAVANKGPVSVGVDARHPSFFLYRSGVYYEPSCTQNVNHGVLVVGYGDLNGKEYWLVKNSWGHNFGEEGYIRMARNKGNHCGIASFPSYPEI

One test concerns the target Recombinant human cathepsin S (CatS) (Homo sapiens, UniProt P25774). In words: Recombinant human cathepsin S (CatS) inhibition assay, fluorogenic substrate Z-Valine-Valine-Arginine-AMC.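 Further: Baculovirus-expressed CatS in pH 5.0 sodium acetate buffer with DTT and NaCl, fluorescence read each minute over 20 min, inhibition derived from rate slope.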
Details: not given
The pIC50 is the negative decadic logarithm of the IC50, by convention in mol/L. In the case of `CS(=O)(=O)N1CCc2c(c(-c3ccc(Cl)c(CCc4ccccc4)c3)nn2CCCN2CCOCC2)C1` [Example 62, 3-(4-Chloro-3-phenethyl-phenyl)-5-methanesulfonyl-1-(3-morpholin-4-yl-propyl)-4,5,6,7-tetrahydro-1H-pyrazolo[4,3-c]pyridine], the pIC50 was 5.91.

`CC(C)(C)OC(=O)N1CCc2ccc(C#Cc3cc(-c4nn(CC(O)CN5CCCCC5)c5c4CN(S(C)(=O)=O)CC5)ccc3Cl)cc2C1` (stereo not shown) [Example 371, 1,1-Dimethylethyl 7-({2-chloro-5-[1-(2-hydroxy-3-piperidin-1-ylpropyl)-5-(methylsulfonyl)-4,5,6,7-tetrahydro-1H-pyrazolo[4,3-c]pyridin-3-yl]phenyl}ethynyl)-3,4-dihydroisoquinoline-2(1H)-carboxylate]: the pIC50 is 6.42.

For `CS(=O)(=O)N1CCc2c(c(-c3ccc(Cl)c(C#Cc4cccc(CNCC5CCCO5)c4)c3)nn2CCCN2CCOCC2)C1` (stereo not shown) [Example 510, 1-[3-({2-Chloro-5-[5-(methylsulfonyl)-1-(3-morpholin-4-ylpropyl)-4,5,6,7-tetrahydro-1H-pyrazolo[4,3-c]pyridin-3-yl]phenyl}ethynyl)phenyl]-N-(tetrahydrofuran-2-ylmethyl)methanamine], the pIC50 is 6.35.

With `NC(=O)N1CCc2c(c(-c3ccc(Cl)c(C#Cc4cccc(CNCc5ccccc5Cl)c4)c3)nn2CCCN2CCSCC2)C1` [Example 513, 3-(4-Chloro-3-{[3-({[(2-chlorophenyl)methyl]amino}methyl)phenyl]ethynyl}phenyl)-1-(3-thiomorpholin-4-ylpropyl)-1,4,6,7-tetrahydro-5H-pyrazolo[4,3-c]pyridine-5-carboxamide], the pIC50 was 6.64.

Take `CS(=O)(=O)N1CCc2c(c(-c3ccc(Cl)c(C#Cc4ccc(Cl)cc4)c3)nn2CC(O)CN2CCC3(CCNC3=O)CC2)C1` (stereo not shown) [Example 298, 8-{3-[3-{4-Chloro-3-[(4-chlorophenyl)ethynyl]phenyl}-5-(methylsulfonyl)-4,5,6,7-tetrahydro-1H-pyrazolo[4,3-c]pyridin-1-yl]-2-hydroxypropyl}-2,8-diazaspiro[4.5]decan-1-one]: the pIC50 was 7.30.

Take `NC(=O)C(=O)N1CCc2c(c(-c3ccc(Cl)c(C#Cc4ccc(CNCc5ccc(Cl)cc5)cc4)c3)nn2CCCN2CCCCC2)C1` [Example 449, 2-[3-(4-Chloro-3-{[4-({[(4-chlorophenyl)methyl]amino}methyl)phenyl]ethynyl}phenyl)-1-(3-piperidin-1-ylpropyl)-1,4,6,7-tetrahydro-5H-pyrazolo[4,3-c]pyridin-5-yl]-2-oxoacetamide]: the pIC50 is 7.00.

For the molecule `NC(=O)N1CCc2c(c(-c3ccc(Cl)c(C#Cc4ccc(COCC5CNCCO5)cc4)c3)nn2CCCN2CCSCC2)C1` (stereo not shown) [Example 548, 3-{4-Chloro-3-[(4-{[(morpholin-2-ylmethyl)oxy]methyl}phenyl)ethynyl]phenyl}-1-(3-thiomorpholin-4-ylpropyl)-1,4,6,7-tetrahydro-5H-pyrazolo[4,3-c]pyridine-5-carboxamide], the pIC50 was 6.92.

Take `C[C@H]1COCCN1CCCn1nc(-c2ccc(Cl)c(C#Cc3ccc(Cl)c(CNCCO)c3)c2)c2c1CCN(C(=O)C(N)=O)C2` [Example 295, 2-(3-{4-Chloro-3-[(4-chloro-3-{[(2-hydroxyethyl)amino]methyl}phenyl)ethynyl]phenyl}-1-{3-[(3S)-3-methylmorpholin-4-yl]propyl}-1,4,6,7-tetrahydro-5H-pyrazolo[4,3-c]pyridin-5-yl)-2-oxoacetamide]: the pIC50 was 7.52.

For the molecule `COc1ccc(CCc2cc(-c3nn(CCCN4CCOCC4)c4c3CN(S(C)(=O)=O)CC4)ccc2Cl)cc1` [Example 58, 3-{4-Chloro-3-[2-(4-methoxy-phenyl)-ethyl]-phenyl}-5-methanesulfonyl-1-(3-morpholin-4-yl-propyl)-4,5,6,7-tetrahydro-1H-pyrazolo[4,3-c]pyridine], the pIC50 is 6.28.

As to `CS(=O)(=O)N1CCc2c(c(-c3ccc(Cl)c(C#Cc4ccc(CNCc5ccc(Cl)c(Cl)c5)cc4)c3)nn2CCCN2CCOCC2)C1` [Example 212, 1-[4-({2-Chloro-5-[5-(methylsulfonyl)-1-(3-morpholin-4-ylpropyl)-4,5,6,7-tetrahydro-1H-pyrazolo[4,3-c]pyridin-3-yl]phenyl}ethynyl)phenyl]-N-[(3,4-dichlorophenyl)methyl]methanamine], the pIC50 is 7.10.

Still in this test, the particulars now being: CatS IC50.
On to `CNCCCNC(=O)c1ccc(C#Cc2cc(-c3nn(CCCN4CCSCC4)c4c3CN(C(N)=O)CC4)ccc2Cl)cc1` [Example 612, 3-{4-Chloro-3-[(4-{[3-(methylamino)propyl]carbamoyl}phenyl)ethynyl]phenyl}-1-(3-thiomorpholin-4-ylpropyl)-1,4,6,7-tetrahydro-5H-pyrazolo[4,3-c]pyridine-5-carboxamide], for which the negative logarithm of the IC50 (pIC50) is 7.10.

Turning to `C[C@H]1COCCN1CCCn1nc(-c2ccc(Cl)c(C#Cc3ccc(CN(C)Cc4ccc(Cl)cc4)cc3)c2)c2c1CCN(S(C)(=O)=O)C2` [Example 500, 1-[4-({2-Chloro-5-[1-{3-[(3S)-3-methylmorpholin-4-yl]propyl}-5-(methylsulfonyl)-4,5,6,7-tetrahydro-1H-pyrazolo[4,3-c]pyridin-3-yl]phenyl}ethynyl)phenyl]-N-[(4-chlorophenyl)methyl]-N-methylmethanamine], the pIC50 was 6.24.

In the case of `CS(=O)(=O)N1CCc2c(c(-c3ccc(Cl)c(C#Cc4cccc(CNCC5CCOCC5)c4)c3)nn2CCCN2CCOCC2)C1` [Example 185, 1-[3-({2-Chloro-5-[5-(methylsulfonyl)-1-(3-morpholin-4-ylpropyl)-4,5,6,7-tetrahydro-1H-pyrazolo[4,3-c]pyridin-3-yl]phenyl}ethynyl)phenyl]-N-(tetrahydro-2H-pyran-4-ylmethyl)methanamine], the pIC50 is 6.28.

For the molecule `C[C@H]1COCCN1CCCn1nc(-c2ccc(Cl)c(C#Cc3ccc(Cl)c(C(=O)NCCN4CCOCC4)c3)c2)c2c1CCN(C(=O)C(N)=O)C2` [Example 168, 5-{[5-(5-[Amino(oxo)acetyl]-1-{3-[(3S)-3-methylmorpholin-4-yl]propyl}-4,5,6,7-tetrahydro-1H-pyrazolo[4,3-c]pyridin-3-yl)-2-chlorophenyl]ethynyl}-2-chloro-N-(2-morpholin-4-ylethyl)benzamide], the pIC50 is 7.52.

As for `CC(C)(C)OC(=O)N1CCc2ccc(C#Cc3cc(-c4nn(CCCN5CCC(C(N)=O)CC5)c5c4CN(S(C)(=O)=O)CC5)ccc3Cl)cc2C1` [Example 374, 1,1-Dimethylethyl 7-({5-[1-{3-[4-(aminocarbonyl)piperidin-1-yl]propyl}-5-(methylsulfonyl)-4,5,6,7-tetrahydro-1H-pyrazolo[4,3-c]pyridin-3-yl]-2-chlorophenyl}ethynyl)-3,4-dihydroisoquinoline-2(1H)-carboxylate], the pIC50 is 6.80.

As for `CS(=O)(=O)N1CCc2c(c(-c3ccc(Cl)c(CCCN4CCC(F)(F)CC4)c3)nn2CCCN2CCC(N3CCCC3=O)CC2)C1` [Example 104, 1-{1-[3-(3-{4-Chloro-3-[3-(4,4-difluoro-piperidin-1-yl)-propyl]-phenyl}-5-methanesulfonyl-4,5,6,7-tetrahydro-pyrazolo[4,3-c]pyridin-1-yl)-propyl]-piperidin-4-yl}-pyrrolidin-2-one], the pIC50 was 6.03.

As for `CS(=O)(=O)N1CCc2c(c(-c3ccc(Cl)c(C#Cc4ccc(CNCc5ccc(Cl)cc5)cc4)c3)nn2CCCN2CCNC(=O)C2)C1` [Example 397, 4-{3-[3-(4-Chloro-3-{[4-({[(4-chlorophenyl)methyl]amino}methyl)phenyl]ethynyl}phenyl)-5-(methylsulfonyl)-4,5,6,7-tetrahydro-1H-pyrazolo[4,3-c]pyridin-1-yl]propyl}piperazin-2-one], the pIC50 is 6.29.

For `CS(=O)(=O)N1CCc2c(c(-c3ccc(Cl)c(C#Cc4cccc(CNCc5ccc(Cl)cc5)c4)c3)nn2CCCN2CCN(c3ccccc3)CC2)C1` [Example 446, 1-{3-[(2-Chloro-5-{5-(methylsulfonyl)-1-[3-(4-phenylpiperazin-1-yl)propyl]-4,5,6,7-tetrahydro-1H-pyrazolo[4,3-c]pyridin-3-yl}phenyl)ethynyl]phenyl}-N-[(4-chlorophenyl)methyl]methanamine], the pIC50 was 7.15.

In the case of `C[C@H]1COCCN1CCCn1nc(-c2ccc(Cl)c(C#Cc3ccc(Cl)c(C(=O)NCCCO)c3)c2)c2c1CCN(C(=O)C(N)=O)C2` [Example 560, 5-{[5-(5-[Amino(oxo)acetyl]-1-{3-[(3S)-3-methylmorpholin-4-yl]propyl}-4,5,6,7-tetrahydro-1H-pyrazolo[4,3-c]pyridin-3-yl)-2-chlorophenyl]ethynyl}-2-chloro-N-(3-hydroxypropyl)benzamide], the pIC50 was 7.70.

With `C[C@H]1COCCN1CCCn1nc(-c2ccc(Cl)c(C#Cc3ccc4c(c3)CN(C(=O)OC(C)(C)C)CC4)c2)c2c1CCN(S(C)(=O)=O)C2` [Example 467, 1,1-Dimethylethyl 7-({2-chloro-5-[1-{3-[(3S)-3-methylmorpholin-4-yl]propyl}-5-(methylsulfonyl)-4,5,6,7-tetrahydro-1H-pyrazolo[4,3-c]pyridin-3-yl]phenyl}ethynyl)-3,4-dihydroisoquinoline-2(1H)-carboxylate], the pIC50 was 6.59.

Consider `CC(C)(C)OC(=O)N1CCC(C2CCN(C[C@H](O)Cn3nc(-c4ccc(Cl)c(C#Cc5cccnc5)c4)c4c3CCN(S(C)(=O)=O)C4)CC2)CC1` [Example 235, 1,1-Dimethylethyl 1′-[(2S)-3-{3-[4-chloro-3-(pyridin-3-ylethynyl)phenyl]-5-(methylsulfonyl)-4,5,6,7-tetrahydro-1H-pyrazolo[4,3-c]pyridin-1-yl}-2-hydroxypropyl]-4,4′-bipiperidine-1-carboxylate], for which the pIC50 was 6.48.

For `CS(=O)(=O)N1CCc2c(c(-c3ccc(Cl)c(C#Cc4ccc(Cl)c(Cl)c4)c3)nn2CCCN2CCOCC2)C1` [Example 13, 3-[4-Chloro-3-(3,4-dichloro-phenylethynyl)-phenyl]-5-methanesulfonyl-1-(3-morpholin-4-yl-propyl)-4,5,6,7-tetrahydro-1H-pyrazolo[4,3-c]pyridine], the pIC50 is 6.49.
